Measured values published in US20160136160A1, “METHOD FOR PREVENTING AND/OR TREATING CHRONIC TRAUMATIC ENCEPHALOPATHY-II” (priority 2013, published 2016).

Tested on: tau phosphorylation
Assay: Tau phosphorylation after concussive injury in the rat (immunohistology for phosphorylated tau)
Assay type: in vivo
Conditions: rat concussion model; 1 mg/kg intravenously at 30 minutes after induction of injury; assessed at 3 day time point
From the text: Note that concussive injury in the rat causes extensive tau phosphorylation (B) by 3 days after the concussive event compared to non-injured animals (A).
Having established that hyperphosphorylated tau accumulates perivascularly following concussive injury, we used an animal model of concussion to investigate whether concussion causes perivascular release of substance P. We developed a rodent model of concussion to replicate the concussive event (Donkin et al., 2004, 7th International Neurotrauma Symposium, pp 75-78, Medimond Publishers, Bologna, Italy) and subsequently determined whether substance P was released after such an event. There was a clear increase in brain perivascular substance P immunoreactivity after the concussive event (FIG. 2).
Having shown that mechanical injury causes release of substance P after concussive injury, we then investigated whether a compound of formula (I) reduces tau hyperphosphorylation after concussive injury. […] Note that concussive injury in the rat causes extensive tau phosphorylation (B) by 3 days after the concussive event compared to non-injured animals (A). […] Thus, administration of a compound of formula (I″) prevents tau hyperphosphorylation and thus prevents the development of CTE.

Structure (SMILES): Cc1ccccc1-c1cc(N2CCN(C)CC2)ncc1C(=O)N(C)Cc1cc(C(F)(F)F)cc(C(F)(F)F)c1 [formula (I″)]
- effect on tau phosphorylation after concussive injury: almost complete inhibition of tau phosphorylation
